Experimental data from US20030013140A1, “Method of detecting ligand or ligand-like low-molecular weight compound” (priority 2000, published 2003).

How the values were obtained:
Assay type in all cases: cell-based
[1] = biological target: T1, human G-CSF receptor (BAF/hGCSFR cell line) (Homo sapiens, UniProt Q99062); assay: Cytoproliferative activity of the human G-CSF-dependent cell line BAF/hGCSFR (WST-1/1-methoxy PMS, 450 nm)
T1 construct: expressed in transfected cells; host or cells: BAF/B03 (mouse IL-3-dependent pro-B cell line), vector pIRESpuro
T1 sequence (Q99062 25-836): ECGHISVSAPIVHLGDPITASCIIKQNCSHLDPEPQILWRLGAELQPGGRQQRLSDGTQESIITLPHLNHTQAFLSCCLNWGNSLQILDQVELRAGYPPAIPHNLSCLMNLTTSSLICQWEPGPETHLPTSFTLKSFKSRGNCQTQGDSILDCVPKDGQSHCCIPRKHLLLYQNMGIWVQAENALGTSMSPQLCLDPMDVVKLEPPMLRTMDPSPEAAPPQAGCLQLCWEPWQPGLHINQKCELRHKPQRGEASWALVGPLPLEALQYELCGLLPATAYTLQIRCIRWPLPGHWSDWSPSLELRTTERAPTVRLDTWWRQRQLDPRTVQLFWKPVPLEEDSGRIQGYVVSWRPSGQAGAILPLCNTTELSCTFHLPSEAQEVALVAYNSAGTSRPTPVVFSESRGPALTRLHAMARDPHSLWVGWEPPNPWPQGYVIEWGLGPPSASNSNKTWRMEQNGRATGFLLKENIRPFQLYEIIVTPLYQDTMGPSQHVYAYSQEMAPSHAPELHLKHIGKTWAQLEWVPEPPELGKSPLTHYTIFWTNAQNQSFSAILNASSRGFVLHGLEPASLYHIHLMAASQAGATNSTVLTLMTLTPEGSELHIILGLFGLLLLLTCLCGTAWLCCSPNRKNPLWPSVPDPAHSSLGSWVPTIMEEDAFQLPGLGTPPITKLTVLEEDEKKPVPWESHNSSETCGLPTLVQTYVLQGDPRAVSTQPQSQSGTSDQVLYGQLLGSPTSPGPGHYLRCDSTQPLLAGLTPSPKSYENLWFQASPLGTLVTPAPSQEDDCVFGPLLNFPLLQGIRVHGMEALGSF
Protocol: Upon determining cytoproliferative activity, a cell line transfected with the human G-CSF receptor gene (BAF/hGCSFR) was recovered and, subsequent to its washing with PBS(−), was suspended in DMEM medium ((−)FCS). The cells were prepared at 5×10^4 cells/well on a 96-well plate. To the individual wells, rhG-CSF was added at 0, 0.025, 0.1, 0.4, 1.6 or 6.4 ng/mL, respectively, followed by incubation at 5% CO2 and 37° C. for 48 hours. Subsequent to the incubation, a WST-1/1-methoxy PMS solution (product of Dojindo Laboratories) was added to the individual wells (final concentration: 5 mM), and a staining reaction was then conducted in a CO2 incubator. After the reaction, measurement was conducted at a measurement wavelength of 450 nm.
With respect to the cell line (BAF/hGCSFR) obtained in Example 1 with the human G-CSF receptor gene introduced therein, effects which may be given to its screening by the existence of a reducing agent (2-mercaptoethanol) was investigated as will be described next. Firstly, two culture media were provided, one being a culture medium obtained by adding 2-mercaptoethanol at 5×10^−5 M to DMEM medium ((−)FCS) and the other consisting solely of DMEM medium ((−)FCS) without incorporation of the additives. […]

[2] = biological target: T2, human EPO receptor (BAF/hEPOR cell line) (Homo sapiens, UniProt P19235); assay: Cytoproliferative activity of the human EPO-dependent cell line BAF/hEPOR (WST-1/1-methoxy PMS, 450 nm); conditions: 2-mercaptoethanol 5×10^-5 M vs medium alone; FIG. 9
T2 construct: expressed in transfected cells; host or cells: BAF/B03 (mouse IL-3-dependent pro-B cell line), vector pIRESpuro; cDNA from a human erythroid leukemia cell line
T2 sequence (P19235 25-508): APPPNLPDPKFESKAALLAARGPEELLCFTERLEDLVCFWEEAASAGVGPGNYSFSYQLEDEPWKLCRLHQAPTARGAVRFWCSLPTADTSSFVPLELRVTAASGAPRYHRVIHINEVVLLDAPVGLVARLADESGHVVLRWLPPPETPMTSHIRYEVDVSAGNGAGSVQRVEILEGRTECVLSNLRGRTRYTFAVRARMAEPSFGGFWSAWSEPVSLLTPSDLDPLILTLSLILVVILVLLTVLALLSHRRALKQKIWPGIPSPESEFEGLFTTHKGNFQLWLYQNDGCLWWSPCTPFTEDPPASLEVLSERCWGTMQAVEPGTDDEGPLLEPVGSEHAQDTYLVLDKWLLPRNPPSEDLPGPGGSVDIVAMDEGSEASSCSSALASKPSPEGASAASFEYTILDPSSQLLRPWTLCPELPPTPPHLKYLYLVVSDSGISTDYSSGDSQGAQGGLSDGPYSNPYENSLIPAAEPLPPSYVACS
Protocol: Upon determining cytoproliferative activity, a cell line transfected with the human EPO receptor gene (BAF/hEPOR) was recovered and, subsequent to its washing with PBS(−), was suspended in DMEM medium ((−)FCS). The cells were prepared at 5×10^4 cells/well on a 96-well plate. […] Subsequent to the incubation, a WST-1/1-methoxy PMS solution (product of Dojindo Laboratories) was added to the individual wells (final concentration: 5 mM), and a staining reaction was then conducted in a CO2 incubator. After the reaction, measurement was conducted at a measurement wavelength of 450 nm.
With respect to the cell line (BAF/hEPOR) obtained in Example 8 with the human EPO receptor gene introduced therein, effects which may be given to its screening by the existence of a reducing agent (2-mercaptoethanol) was investigated as will be described next. Firstly, two culture media were provided, one being a culture medium obtained by adding 2-mercaptoethanol at 5×10^−5 M to DMEM medium ((−)FCS) and the other consisting solely of DMEM medium ((−)FCS) without addition of the reducing agent. Those culture media were poured into individual wells of 96-well plates, respectively, and BAF/hEPOR which had been washed with PBS(−) was suspended at 5×10^4 cells/well. […]

[3] = biological target: T3, human IL-10 receptor (BAF/hIL-10R cell line) (Homo sapiens, UniProt Q13651); assay: Cytoproliferative activity of the human IL-10-dependent cell line BAF/hIL-10R (WST-1/1-methoxy PMS, 450 nm); conditions: 2-mercaptoethanol 5×10^-5 M vs medium alone; marked differences at rhIL-10 10, 100 and 1,000 ng/mL; FIG. 6
T3 construct: expressed in transfected cells; host or cells: BAF/B03 (mouse IL-3-dependent pro-B cell line), vector pIRESpuro
T3 sequence (Q13651 22-578): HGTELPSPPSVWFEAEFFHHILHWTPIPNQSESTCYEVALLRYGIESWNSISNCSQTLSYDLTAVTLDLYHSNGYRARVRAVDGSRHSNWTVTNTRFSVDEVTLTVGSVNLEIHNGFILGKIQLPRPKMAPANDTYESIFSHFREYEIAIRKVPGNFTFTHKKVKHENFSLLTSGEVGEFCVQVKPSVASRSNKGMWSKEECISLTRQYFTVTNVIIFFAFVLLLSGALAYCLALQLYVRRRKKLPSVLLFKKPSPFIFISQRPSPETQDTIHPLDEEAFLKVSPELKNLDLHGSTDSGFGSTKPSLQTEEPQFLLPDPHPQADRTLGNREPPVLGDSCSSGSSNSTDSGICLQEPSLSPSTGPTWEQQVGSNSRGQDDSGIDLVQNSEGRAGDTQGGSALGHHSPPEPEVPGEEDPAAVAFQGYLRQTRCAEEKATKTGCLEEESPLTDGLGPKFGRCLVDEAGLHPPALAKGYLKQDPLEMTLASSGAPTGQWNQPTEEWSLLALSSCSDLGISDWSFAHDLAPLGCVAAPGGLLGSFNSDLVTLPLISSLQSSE
T3 sequence (Q61190 20-349 partner): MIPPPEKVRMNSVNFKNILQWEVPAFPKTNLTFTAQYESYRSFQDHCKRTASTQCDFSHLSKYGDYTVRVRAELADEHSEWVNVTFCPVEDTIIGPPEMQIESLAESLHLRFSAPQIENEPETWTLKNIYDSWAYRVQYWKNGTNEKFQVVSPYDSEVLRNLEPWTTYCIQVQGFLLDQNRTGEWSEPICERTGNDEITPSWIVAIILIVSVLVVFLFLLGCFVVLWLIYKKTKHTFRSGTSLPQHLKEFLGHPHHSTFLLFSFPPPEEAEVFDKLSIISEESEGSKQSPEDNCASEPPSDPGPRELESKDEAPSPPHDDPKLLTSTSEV
Protocol: Upon determining cytoproliferative activity, a cell line transfected with the human IL-10 receptor gene (BAF/hIL-10R) was recovered and, subsequent to its washing with PBS(−), was suspended in DMEM medium ((−)FCS). The cells were prepared at 5×10^4 cells/well on a 96-well plate. To the individual wells, rhIL-10 was added at 0, 0.0001, 0.001, 0.01, 0.1, 1, 10, 100 or 1,000 ng/mL, respectively, followed by incubation at 5% CO2 and 37° C. for 48 hours. Subsequent to the incubation, the WST-1/1-methoxy PMS solution (product of Dojindo Laboratories) was added (final concentration: 5 mM), and a staining reaction was then conducted in a CO2 incubator. After the reaction, measurement was conducted at a measurement wavelength of 450 nm.
With respect to the cell line (BAF/hIL-10R) obtained in Example 2 with the human IL-10 receptor gene introduced therein, effects which may be given to its screening by the existence of a reducing agent (2-mercaptoethanol) was investigated as will be described next. Firstly, two culture media were provided, one being a culture medium obtained by adding 2-mercaptoethanol at 5×10^−5 M to DMEM medium ((−)FCS) and the other consisting solely of DMEM medium ((−)FCS) without addition of the reducing agent. […]

Compound | effect of reducing agent on cytoproliferation of BAF/hG-CSFR in the presence of rhG-CSF ([1]; 2-mercaptoethanol 5×10^-5 M vs medium alone, marked differences at rhG-CSF 0.1, 0.4, 1.6 and 6.4 ng/mL, FIG. 3) | effect of reducing agent on cytoproliferation of BAF/hEPOR in the presence of rhEPO [2] | effect of reducing agent on cytoproliferation of BAF/hIL-10R in the presence of rhIL-10 [3] | cytoproliferation of BAF/hG-CSFR in the presence of SB247464 on addition of WEHI sup to the culture medium ([1]; WEHIsup 1.25% with 2-mercaptoethanol 5×10^-5 M vs medium alone, SB247464 0 to 10^-6 M, marked differences at 10^-8, 10^-9 and 10^-10, FIG. 5)
OCCS [2-mepcaptoethanol, 2-mercaptoethanol] | enhanced | enhanced | enhanced | 
c1ccc(C23N=C(Nc4nc5ccccc5[nH]4)NC2(c2ccccn2)NC(Nc2nc4ccccc4[nH]2)=N3)nc1 (stereo not shown) [SB247464, reference compound] |  |  |  | enhanced
